Measured values published in patent US20110244472A1, “Cancer stem cell immortalization” (priority 2008, published 2011).

Key:
Oct3/4-GFP+ MCF7 cells = assay: Secondary growth experiment in 12 well plates, manual cell counts; type: cell-based; conditions: 0.8 μM, cell counts over three days, FIG. 11
Protocol: (§1) Then, a secondary set of experiments were performed in 12 well plates in which 2000 cells/well were initially seeded and allowed to attach for one day. The following day (day 0), the medium was replaced with fresh medium containing 0.8 μM of each of these three compounds. Cell counts were then performed manually on triplicate wells over a period of three days. Oct3/4-GFP+ MCF7 cells are represented by the lower, dashed curve in all three panels.

[1] = tested on: Oct3/4-GFP(+) MCF7 cells vs control Oct3/4-GFP(-) MCF cells; assay: Initial small molecule screen in 384 well plates, CellTiter-Blue cell viability; type: cell-based; conditions: 5 μM, 72 hours
Protocol: Experiments were performed to determine whether the growth of Oct3/4-GFP(+) MCF cells could be inhibited with novel small molecules. Oct3/4-GFP(+) MCF7 cells were used as the target population. Control cells consisted of Oct3/4-GFP(−)MCF cells (lacking an Oct3/4-GFP cassette) that were infected with a GFP-expressing lentivirus as a way of controlling for GFP expression. Initial screenings were performed in 384 well plates on triplicate samples as follows.
(§2) First, the cell cultures were prepared by trypsinizing and resuspending the cells in MCF7 culture medium (alpha MEM, 10% FBS, 2 mM Glutamine, 1 mM Sodium Pyruvate, 1 mM non-essential amino acids, 100 U/ml Penicillin/Streptomycin) at a density of 4×10^4/ml. The screen was then performed by (1) diluting compounds to 30 μM using alpha MEM; (2) adding […] of compound-containing solution to each well (which will result in a final concentration of 5 μM); (3) adding 25 μl of cell suspension to each well (1000 cells/well); and (4) incubating the cells with compounds for 72 hours at 37° C., 5% CO2. Cell viability was then assessed using the CellTiter-Blue® assay by Promega, modified as follows. Since there were 30 ul medium in each well, 6 μl CellTiter-Blue was added to each well. The plates were then incubated at 37° C. for 2.5 hours. The plates were then read on a SpectraMax M5 Microplate Reader using the wavelength of excitation 560 nm/emission 590 nm.
as §1

[2] = tested on: non-stem cell and Oct3/4-GFP+ CSCs prepared from three breast cancer cell lines, MCF7, MB231 and MB453; assay: LOPAC screen for CSC-specific inhibitory activity; type: cell-based; conditions: CSCs from at least one of MCF7, MB231, MB453; FIG. 14A
Protocol: (§3) FIG. 14A-E. Testing various chemical compounds for CSC-specific inhibitory activity in non-stem MCF7, MDA-MB231 or MDA-MB453 or in Oct3/4-GFP+ CSC cells of those same lines. CSC are denoted by solid circles ([…])_ and non-stem cells are denoted by solid squares (▪).
as §2
(§4) 1280 compounds from the Library of Pharmacologically Active Compounds (“LOPAC”) were screened for activity against non-stem cell and Oct3/4-GFP+ CSCs prepared from three breast cancer cell lines, MCF7, MB231 and MB453 using methods set forth above.

[3] = tested on: MDA-MB231 Oct3/4-GFP+ CSC cells; assay: CSC-specific inhibitory activity test, MDA-MB231; type: cell-based; conditions: 4 μM, FIG. 14B
Text: as §3, §4

[4] = tested on: MCF7 Oct3/4-GFP+ CSC cells; assay: CSC-specific inhibitory activity test, MCF7; type: cell-based; conditions: 7 nM, FIG. 14C
Text: as §3, §4

[5] = tested on: MDA-MB453 Oct3/4-GFP+ CSC cells; assay: CSC-specific inhibitory activity test, MDA-MB453; type: cell-based; conditions: 10 nM, FIG. 14D and E
Text: as §3, §4

[6] = tested on: MCF7 cells and Oct3/4-GFP+MCF7 cells; assay: Hoechst 33342 side population (SP) analysis; type: cell-based; conditions: 20 μM Reserpine; MCF7 and Oct3/4-GFP+MCF7 cells; Hoechst 33342 exclusion
Text: In other studies, Oct3/4-GFP+MCF7 cells were examined by qRT-PCR for expression of the breast cancer CSC markers CD133 and Oct3/4. After normalizing to GAPDH, the ratios of these transcripts in Oct3/4-GFP+MCF7 cells and non-CSC-MCF7 cells were 6.3 for CD133 and 2.5 for Oct3/4. […] The SP is due to CSCs ability to exclude the dye Hoechst 33342 and reflects high expression of […] transporters such as MDR1 and BRCP (30). […] These fractions could also be reduced by >70% following exposure to 20 μM Reserpine, which inhibits ABC transporters (30). Moreover, the overall mean fluorescence intensity of the entire Oct3/4-GFP+MCF population was two-fold lower than that of the MCF7 population. Thus, based on independent qRT-PCR assessments of CSC gene expression profiles and on uptake/exclusion of Hoechst 33342, one can conclude that the Oct3/4-GFP+MCF7 population consists of highly enriched and stable cells that are unable to differentiate into TACs.

[7] = tested on: MCF7 cells and Oct3/4-GFP+MCF7 CSCs; assay: Differential chemotherapeutic responses, viable adherent cells by trypan blue exclusion; type: cell-based; conditions: number of viable adherent cells over time, triplicate plates
Protocol: FIG. 6. Differential chemotherapeutic responses of MCF7 and Oct3/4-GFP+MCF7 cells. 10^5 unfractionated, MCF7 cells (dotted line) or Oct3/4GFP+MCF7 cells (broken line) were seeded into 6 well plates and allowed to achieve ca. 30-50% confluence. The indicated concentrations of adriamycin, etoposide, 5-fluorouracil, cis-platinum, methotrexate, and taxol were then added (day 0). The total number of viable adherent cells was then determined at the indicated times by trypan blue exclusion. […] Note that in most cases Oct4/4-GFP+MCF7 actually grew in the presence of all agents. These experiments were repeated at least two additional times with similar outcomes.
5. Differential chemosensitivities of Oct3/4-GFP+MCF7 cells. It is believed that CSCs are more resistant to chemotherapeutic agents than TACs, thus at least partly accounting for the propensity of many tumors to relapse after an initial response (12,27,36). To test this idea, MCF7 cells and Oct3/4-GFP+MCF7 CSCs were exposed to six different chemotherapeutic agents commonly employed to treat breast cancer.

[8] = tested on: non-stem and CSC versions of MCF7, MDA-MB453 and BTL12 cells; assay: Effect of topoisomerase I shRNA knockdown on cultures of non-stem and CSC cells; type: cell-based; conditions: doxycycline-induced, FIG. 20A-C
Text: FIG. 20A-C. Evaluation of the effect of doxycycline-inducible shRNA targeting topoisomerase I in non-stem MCF7, MDA-MB453 or BTL12 or in Oct3/4-GFP+ CSC cells of those same lines. (A) MCF7. (B) MDA-MB453. (C) BTL12.
(§5) To test this hypothesis further, small hairpin RNA (shRNA) was used to knockdown topoisomerase I using a conditional shRNA expression system (pTRIPZ vector-Origene, Inc.), in which expression of the shRNA is induced by doxycycline. The shRNA used had the sequence: […] […] (SEQ ID NO:10, NM_003286).

topoisomerase I = assay: Doxycycline-induced shRNA knockdown of topoisomerase I expression (mRNA, Western blot); type: cell-based, human; conditions: FIGS. 17 and 18
Text: FIG. 17. Topoisomerase I expression in topoisomerase I shRNA-treated cells.
FIG. 18. Western blot analysis of topoisomerase I expression in CSC and non-stem cell versions of MCF7, MDA-MB453, BTL12 and MDA-MB231 cells with or without doxycycline-induced (“dox”) shRNA knockdown.
as §5

[9] = tested on: tumor xenografts from non-stem and CSC MCF7 cells; assay: Effect of topoisomerase I shRNA knockdown on tumor xenografts; type: in vivo; conditions: doxycycline-induced knockdown; xenografts in nude mice; FIG. 21A-B
Text: FIG. 21A-B. Evaluation of the effect of doxycycline-inducible shRNA targeting topoisomerase I in tumor xenografts generated from (A) non-stem MCF7 cells or (B) Oct3/4-GFP(+) MCF7 CSC cells.
as §5

CCn1cnc2c(Nc3cccc(Cl)c3)nc(N[C@@H]3CCCC[C@@H]3N)nc21.Cl (relative stereo) [CGP74514A, N2-(cis-2-aminocyclohexyl)-N6-(3-chlorophenyl)-9-ethyl-9H-purine-2,6-diamine hydrochloride]
selective inhibition of Oct3/4-GFP+ MCF cells (Oct3/4-GFP+ MCF7 cells): Selective inhibition | selectivity for Oct3/4-GFP(+) MCF7 cells in initial screening [1]: potentially selective agents

Cl.NCC1OC(C23CC4CC(CC(C4)C2)C3)Cc2c1ccc(O)c2O (stereo not shown) [A77636, 3-(1′-adamantyl)-1-aminomethyl-3,4-dihydro-5,6-dihydroxy-1H-2-benzopyran hydrochloride]
selective inhibition of Oct3/4-GFP+ MCF cells (Oct3/4-GFP+ MCF7 cells): Selective inhibition | selectivity for Oct3/4-GFP(+) MCF7 cells in initial screening [1]: potentially selective agents | selective inhibition of growth of CSCs [2]: selectively inhibited growth of CSCs

O=C1C=C(NCCN2CCOCC2)C(=O)c2ncccc21 [JUN1111]
CSC-selective inhibitory activity [3]: CSC-selective inhibitory activity

NC(=S)N/N=C/c1ccc([N+](=O)[O-])s1 [NSC725]
CSC-selective inhibitory activity [4]: CSC-selective inhibitory activity | CSC-selective inhibitory activity [5]: CSC-selective activity

Nc1nc(N)c2[nH]cnc2n1 [NSC743]
CSC-selective inhibitory activity [5]: CSC-selective activity

COC(=O)[C@H]1[C@H]2C[C@@H]3c4[nH]c5cc(OC)ccc5c4CCN3C[C@H]2C[C@@H](OC(=O)c2cc(OC)c(OC)c(OC)c2)[C@@H]1OC [Reserpine]
reduction of side population (SP) fractions [6]: > 70%

CC(=O)c1c(O)c(C)c(O)c(Cc2c(O)c3c(c(C(=O)/C=C/c4ccccc4)c2O)OC(C)(C)C=C3)c1O [Rottlerin, (Z)-1-[6-[(3-acetyl-2,4,6-trihydroxy-5-methylphenyl)methyl]-5,7-dihydroxy-2,2-dimethylchromen-8-yl]-3-phenylpro-2-en-1-one]
selective inhibition of Oct3/4-GFP+ MCF cells (Oct3/4-GFP+ MCF7 cells): Selective inhibition | selectivity for Oct3/4-GFP(+) MCF7 cells in initial screening [1]: potentially selective agents | selective inhibition of growth of CSCs [2]: selectively inhibited growth of CSCs

CC(=O)O[C@H]1C(=O)[C@@]2(C)[C@H]([C@H](OC(=O)c3ccccc3)[C@]3(O)C[C@H](OC(=O)[C@H](O)[C@@H](NC(=O)c4ccccc4)c4ccccc4)C(C)=C1C3(C)C)[C@]1(OC(C)=O)CO[C@@H]1C[C@@H]2O [taxol]
sensitivity of Oct3/4-GFP+MCF7 cells relative to MCF7 cells [7]: significantly more sensitive

CC1(C)CCC2=C(O1)c1ccccc1C(=O)C2=O [β-lapachone]
selective inhibition of growth of CSCs [2]: selectively inhibited growth of CSCs

B1: shRNA: doxycycline-inducible small hairpin RNA homologous to the topoisomerase I gene, SEQ ID NO:10, pTRIPZ vector (nucleic acid)
chain: TGCTGTTGACAGTGAGCGCGCTGATTATAAACCTAAGAAATAGTGAAGCCACAGATGTATTTCTTAGGTTTATAATCAGCATGCCTACTGCCTCGGA
effect of knockdown on CSCs relative to non-stem cells (viable cells) [8]: more profound on CSCs relative to their non-stem cell counterparts | topoisomerase I mRNA and protein expression (topoisomerase I): successfully knocked-down mRNA and protein expression | reduction in tumor size, CSC-generated vs non-stem tumors [9]: proportionally greater for the CSC-generated tumors | tumor size [9]: decreased the size of tumors resulting from both non-stem and CSC MCF7 cells
